Consider ten compounds from patent US20220389007A1, “INHIBITORS OF HUMAN IMMUNODEFICIENCY VIRUS REPLICATION” (VIIV HEALTHCARE UK (No. 5) LIMITED, priority 2019, published 2022).

Some results are limits rather than exact numbers.

One data set deals with recombinant NL4-3 virus. Nature of the data set: HIV cell culture assay (antiviral activity, luciferase readout). The class given is cell-based. Conditions: Human immunodeficiency virus 1, NL43, MT2, MT-2 cells infected for 4-5 days with recombinant NL4-3 virus carrying Renilla luciferase. As to the method:
HIV cell culture assay—MT-2 cells, 293T cells and the proviral DNA clone of NL4-3 virus were obtained from the NIH AIDS Research and Reference Reagent Program. MT-2 cells were propagated in RPMI 1640 media supplemented with 10% heat inactivated fetal bovine serum (FBS), […]. The 293T cells were propagated in DMEM media supplemented with 10% heat inactivated FBS, […]. A recombinant NL4-3 proviral clone, in which a section of the nef gene was replaced with the Renilla luciferase gene, was used to make the reference virus used in these studies. The recombinant virus was prepared through transfection of the recombinant NL4-3 proviral clone into 293T cells using Transit-293 Transfection Reagent from Mirus Bio LLC (Madison, WI). Supernatent was harvested after 2-3 days and the amount of virus present was titered in MT-2 cells using luciferase enzyme activity as a marker by measuring luciferase enzyme activity. Luciferase was quantitated using the EnduRen Live Cell Substrate from Promega (Madison, Wis.). Antiviral activities of compounds toward the recombinant virus were quantified by measuring luciferase activity in MT-2 cells infected for 4-5 days with the recombinant virus in the presence of serial dilutions of the compound.
The 50% effective concentration (EC50) was calculated by using the exponential form of the median effect equation where (Fa)=1/[1+(ED50/drug conc.)m] (Johnson VA, Byington RT. Infectivity Assay. In Techniques in HIV Research. ed. Aldovini A, Walker BD. 71-76. New York: Stockton Press. 1990). The 50% inhibitory concentration (EC50) was calculated by using the exponential form of the median effect equation where percent inhibition=1/[1+(EC50/drug concentration)m], where m is a parameter that reflects the slope of the concentration-response curve.

A short description of data set [1]: Compound cytotoxicity, XTT-based colorimetric assay. Type of data set: cell-based. To be noted: human; uninfected MT2 cells, day 4, XTT assay. As to the method:
Compound cytotoxicity and the corresponding CC50 values were determined using the same protocol as described in the antiviral assay except that uninfected cells were used. Cytotoxicity was assessed on day 4 in uninfected MT2 cells by using a XTT (2,3-bis[2-Methoxy-4-nitro-5-sulfophenyl]-2H-tetrazolium-5-carboxyanilide inner salt)-based colorimetric assay (Sigma-Aldrich, St Louis, Mo.).

In general, EC50 refers to the concentration that produces a half-maximal response. The term CC50 denotes the concentration giving 50% cytotoxicity. Read a low CC50 as harm at low concentration. For the compound `Cc1cc(C)nc(-c2ccc3c(=O)n(-c4ccc(Cl)c5c(NS(C)(=O)=O)nn(C)c45)c([C@H](Cc4cc(F)cc(F)c4)NC(=O)Cn4nc(C(F)F)c5c4C(F)(F)[C@@H]4C[C@H]54)nc3n2)n1` (atropisomer, axis not shown; (P)) [Example 11, N-((S)-1-((3P)-3-(4-chloro-1-methyl-3-(methylsulfonamido)-1H-indazol-7-yl)-7-(4,6-dimethylpyrimidin-2-yl)-4-oxo-3,4-dihydropyrido[2,3-d]pyrimidin-2-yl)-2-(3,5-difluorophenyl)ethyl)-2-((3bS,4aR)-3-(difluoromethyl)-5,5-difluoro-3b,4,4a,5-tetrahydro-1H-cyclopropa[3,4]cyclopenta[1,2-c]pyrazol-1-yl)acetamide], the 50% effective concentration (EC50) in the data set with recombinant NL4-3 virus was determined as 0.036 nM. In addition, the CC50 at 4 day in data set [1] was > 100 nM.

Consider `Cn1nc(NS(C)(=O)=O)c2c(Cl)ccc(-n3c([C@H](Cc4cc(F)cc(F)c4)NC(=O)Cn4nc(C(F)F)c5c4C(F)(F)[C@@H]4C[C@H]54)nc4nc(-c5cccc(C(C)(F)F)n5)ccc4c3=O)c21` (atropisomer, axis not shown; (P)) [Example 12, N-((S)-1-((3P)-3-(4-chloro-1-methyl-3-(methylsulfonamido)-1H-indazol-7-yl)-7-(6-(1,1-difluoroethyl)pyridin-2-yl)-4-oxo-3,4-dihydropyrido[2,3-d]pyrimidin-2-yl)-2-(3,5-difluorophenyl)ethyl)-2-((3bS,4aR)-3-(difluoromethyl)-5,5-difluoro-3b,4,4a,5-tetrahydro-1H-cyclopropa[3,4]cyclopenta[1,2-c]pyrazol-1-yl)acetamide], for which the concentration giving a half-maximal response (EC50) with recombinant NL4-3 virus turned out to be 0.06 nM. Moreover, the half-maximal cytotoxic concentration (CC50) at 4 day in data set [1] was > 100 nM.

Consider `Cn1nc(NS(C)(=O)=O)c2c(Cl)ccc(-n3c([C@H](Cc4cc(F)cc(F)c4)NC(=O)Cn4nc(C(F)F)c5c4C(F)(F)[C@@H]4C[C@H]54)nc4nc(-c5cncc(C(F)(F)F)n5)ccc4c3=O)c21` (atropisomer, axis not shown; (P)) [Example 13, N-((S)-1-((3P)-3-(4-chloro-1-methyl-3-(methylsulfonamido)-1H-indazol-7-yl)-4-oxo-7-(6-(trifluoromethyl)pyrazin-2-yl)-3,4-dihydropyrido[2,3-d]pyrimidin-2-yl)-2-(3,5-difluorophenyl)ethyl)-2-((3bS,4aR)-3-(difluoromethyl)-5,5-difluoro-3b,4,4a,5-tetrahydro-1H-cyclopropa[3,4]cyclopenta[1,2-c]pyrazol-1-yl)acetamide], for which the EC50 with recombinant NL4-3 virus stood at 0.04 nM. For the same compound, the CC50 at 4 day in data set [1] is > 100 nM.

For the compound `Cn1nc(NS(C)(=O)=O)c2c(Cl)ccc(-n3c([C@H](Cc4cc(F)cc(F)c4)NC(=O)Cn4nc(C(F)F)c5c4C(F)(F)[C@@H]4C[C@H]54)nc4nc(-c5cc(C(F)(F)F)cc(C(F)(F)F)n5)ccc4c3=O)c21` (atropisomer, axis not shown; (P)) [Example 14, N-((S)-1-(7-(4,6-bis(trifluoromethyl)pyridin-2-yl)-(3P)-3-(4-chloro-1-methyl-3-(methylsulfonamido)-1H-indazol-7-yl)-4-oxo-3,4-dihydropyrido[2,3-d]pyrimidin-2-yl)-2-(3,5-difluorophenyl)ethyl)-2-((3bS,4aR)-3-(difluoromethyl)-5,5-difluoro-3b,4,4a,5-tetrahydro-1H-cyclopropa[3,4]cyclopenta[1,2-c]pyrazol-1-yl)acetamide], the EC50 in the data set with recombinant NL4-3 virus is 0.28 nM. For the same compound, the CC50 at 4 day in data set [1] was > 100 nM.

Regarding `Cn1nc(NS(C)(=O)=O)c2c(Cl)ccc(-n3c([C@H](Cc4cc(F)cc(F)c4)NC(=O)Cn4nc(C(F)F)c5c4C(F)(F)[C@@H]4C[C@H]54)nc4nc(-c5cc(C(F)(F)F)ncn5)ccc4c3=O)c21` (atropisomer, axis not shown; (P)) [Example 15, N-((S)-1-((3P)-3-(4-chloro-1-methyl-3-(methylsulfonamido)-1H-indazol-7-yl)-4-oxo-7-(6-(trifluoromethyl)pyrimidin-4-yl)-3,4-dihydropyrido[2,3-d]pyrimidin-2-yl)-2-(3,5-difluorophenyl)ethyl)-2-((3bS,4aR)-3-(difluoromethyl)-5,5-difluoro-3b,4,4a,5-tetrahydro-1H-cyclopropa[3,4]cyclopenta[1,2-c]pyrazol-1-yl)acetamide], the concentration giving a half-maximal response (EC50) with recombinant NL4-3 virus was determined as 0.025 nM. Moreover, the CC50 at 4 day in data set [1] is > 100 nM.

Take `Cn1nc(NS(C)(=O)=O)c2c(Cl)ccc(-n3c([C@H](Cc4cc(F)cc(F)c4)NC(=O)Cn4nc(C(F)F)c5c4C(F)(F)[C@@H]4C[C@H]54)nc4nc(-c5cc(C(F)(F)F)ccn5)ccc4c3=O)c21` (atropisomer, axis not shown; (P)) [Example 16, N-((S)-1-((3P)-3-(4-chloro-1-methyl-3-(methylsulfonamido)-1H-indazol-7-yl)-4-oxo-7-(4-(trifluoromethyl)pyridin-2-yl)-3,4-dihydropyrido[2,3-d]pyrimidin-2-yl)-2-(3,5-difluorophenyl)ethyl)-2-((3bS,4aR)-3-(difluoromethyl)-5,5-difluoro-3b,4,4a,5-tetrahydro-1H-cyclopropa[3,4]cyclopenta[1,2-c]pyrazol-1-yl)acetamide]: the half-maximal effective concentration (EC50) with recombinant NL4-3 virus was determined as 0.052 nM. Also, the CC50 at 4 day in data set [1] was > 100 nM.

For the compound `Cn1nc(NS(C)(=O)=O)c2c(Cl)ccc(-n3c([C@H](Cc4cc(F)cc(F)c4)NC(=O)Cn4nc(C(F)F)c5c4C(F)(F)[C@@H]4C[C@H]54)nc4nc(-c5ncncc5C(F)(F)F)ccc4c3=O)c21` (atropisomer, axis not shown; (P)) [Example 17, N-((S)-1-((3P)-3-(4-chloro-1-methyl-3-(methylsulfonamido)-1H-indazol-7-yl)-4-oxo-7-(5-(trifluoromethyl)pyrimidin-4-yl)-3,4-dihydropyrido[2,3-d]pyrimidin-2-yl)-2-(3,5-difluorophenyl)ethyl)-2-((3bS,4aR)-3-(difluoromethyl)-5,5-difluoro-3b,4,4a,5-tetrahydro-1H-cyclopropa[3,4]cyclopenta[1,2-c]pyrazol-1-yl)acetamide], the EC50 with recombinant NL4-3 virus was 0.038 nM. For the same compound, the 50% cytotoxic concentration (CC50) at 4 day in data set [1] is > 100 nM.

As for `Cc1cc(-c2ccc3c(=O)n(-c4ccc(Cl)c5c(NS(C)(=O)=O)nn(C)c45)c([C@H](Cc4cc(F)cc(F)c4)NC(=O)Cn4nc(C(F)F)c5c4C(F)(F)[C@@H]4C[C@H]54)nc3n2)nc(C(F)(F)F)n1` (atropisomer, axis not shown; (P)) [Example 18, N-((S)-1-((3P)-3-(4-chloro-1-methyl-3-(methylsulfonamido)-1H-indazol-7-yl)-7-(6-methyl-2-(trifluoromethyl)pyrimidin-4-yl)-4-oxo-3,4-dihydropyrido[2,3-d]pyrimidin-2-yl)-2-(3,5-difluorophenyl)ethyl)-2-((3bS,4aR)-3-(difluoromethyl)-5,5-difluoro-3 b,4,4a,5-tetrahydro-1H-cyclopropa[3,4]cyclopenta[1,2-c]pyrazol-1-yl)acetamide], the concentration for a half-maximal effect (EC50) in the data set with recombinant NL4-3 virus came to 0.068 nM. Also, in data set [1], the CC50 at 4 day was > 100 nM.

`Cn1nc(NS(C)(=O)=O)c2c(Cl)ccc(-n3c([C@H](Cc4cc(F)cc(F)c4)NC(=O)Cn4nc(C(F)F)c5c4C(F)(F)[C@@H]4C[C@H]54)nc4nc(-c5ccc(F)c(C(F)(F)F)c5)ccc4c3=O)c21` (atropisomer, axis not shown; (P)) [Example 19, N-((S)-1-((3P)-3-(4-chloro-1-methyl-3-(methylsulfonamido)-1H-indazol-7-yl)-7-(4-fluoro-3-(trifluoromethyl)phenyl)-4-oxo-3,4-dihydropyrido[2,3-d]pyrimidin-2-yl)-2-(3,5-difluorophenyl)ethyl)-2-((3bS,4aR)-3-(difluoromethyl)-5,5-difluoro-3b,4,4a,5-tetrahydro-1H-cyclopropa[3,4]cyclopenta[1,2-c]pyrazol-1-yl)acetamide]: in the data set on recombinant NL4-3 virus, the EC50 came to 0.23 nM. The 50% cytotoxic concentration (CC50) at 4 day in data set [1] is > 100 nM.

As for `Cn1nc(NS(C)(=O)=O)c2c(Cl)ccc(-n3c([C@H](Cc4cc(F)cc(F)c4)NC(=O)Cn4nc(C(F)F)c5c4C(F)(F)[C@@H]4C[C@H]54)nc4nc(-c5cccc(OC(F)F)c5)ccc4c3=O)c21` (atropisomer, axis not shown; (P)) [Example 20, N-((S)-1-((3P)-3-(4-chloro-1-methyl-3-(methylsulfonamido)-1H-indazol-7-yl)-7-(3-(difluoromethoxy)phenyl)-4-oxo-3,4-dihydropyrido[2,3-d]pyrimidin-2-yl)-2-(3,5-difluorophenyl)ethyl)-2-((3bS,4aR)-3-(difluoromethyl)-5,5-difluoro-3b,4,4a,5-tetrahydro-1H-cyclopropa[3,4]cyclopenta[1,2-c]pyrazol-1-yl)acetamide], the EC50 in the data set with recombinant NL4-3 virus amounted to 0.2 nM. Also, the CC50 at 4 day in data set [1] was > 100 nM.
